Source: PubChem BioAssay AID602166 (The Scripps Research Institute Molecular Screening Center, 2012)
pIC50: −log10 of the molar value. Active and inactive are the calls of the source. How the calls were made is not given here.

These molecules were tested against Nuclear receptor coactivator 3 (Homo sapiens) (UniProt Q9Y6Q9) (assay: NCOA3 reporter inhibition potency – cell-based, luminescence, dose response (AID 602166;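 further: potency for reduction of SRC3 reporter signal so compounds are inhibitors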)). Conditions: SRC3 luciferase reporter cell assay.
Chain of Nuclear receptor coactivator 3 (Homo sapiens) (Q9Y6Q9 whole entry, looked up): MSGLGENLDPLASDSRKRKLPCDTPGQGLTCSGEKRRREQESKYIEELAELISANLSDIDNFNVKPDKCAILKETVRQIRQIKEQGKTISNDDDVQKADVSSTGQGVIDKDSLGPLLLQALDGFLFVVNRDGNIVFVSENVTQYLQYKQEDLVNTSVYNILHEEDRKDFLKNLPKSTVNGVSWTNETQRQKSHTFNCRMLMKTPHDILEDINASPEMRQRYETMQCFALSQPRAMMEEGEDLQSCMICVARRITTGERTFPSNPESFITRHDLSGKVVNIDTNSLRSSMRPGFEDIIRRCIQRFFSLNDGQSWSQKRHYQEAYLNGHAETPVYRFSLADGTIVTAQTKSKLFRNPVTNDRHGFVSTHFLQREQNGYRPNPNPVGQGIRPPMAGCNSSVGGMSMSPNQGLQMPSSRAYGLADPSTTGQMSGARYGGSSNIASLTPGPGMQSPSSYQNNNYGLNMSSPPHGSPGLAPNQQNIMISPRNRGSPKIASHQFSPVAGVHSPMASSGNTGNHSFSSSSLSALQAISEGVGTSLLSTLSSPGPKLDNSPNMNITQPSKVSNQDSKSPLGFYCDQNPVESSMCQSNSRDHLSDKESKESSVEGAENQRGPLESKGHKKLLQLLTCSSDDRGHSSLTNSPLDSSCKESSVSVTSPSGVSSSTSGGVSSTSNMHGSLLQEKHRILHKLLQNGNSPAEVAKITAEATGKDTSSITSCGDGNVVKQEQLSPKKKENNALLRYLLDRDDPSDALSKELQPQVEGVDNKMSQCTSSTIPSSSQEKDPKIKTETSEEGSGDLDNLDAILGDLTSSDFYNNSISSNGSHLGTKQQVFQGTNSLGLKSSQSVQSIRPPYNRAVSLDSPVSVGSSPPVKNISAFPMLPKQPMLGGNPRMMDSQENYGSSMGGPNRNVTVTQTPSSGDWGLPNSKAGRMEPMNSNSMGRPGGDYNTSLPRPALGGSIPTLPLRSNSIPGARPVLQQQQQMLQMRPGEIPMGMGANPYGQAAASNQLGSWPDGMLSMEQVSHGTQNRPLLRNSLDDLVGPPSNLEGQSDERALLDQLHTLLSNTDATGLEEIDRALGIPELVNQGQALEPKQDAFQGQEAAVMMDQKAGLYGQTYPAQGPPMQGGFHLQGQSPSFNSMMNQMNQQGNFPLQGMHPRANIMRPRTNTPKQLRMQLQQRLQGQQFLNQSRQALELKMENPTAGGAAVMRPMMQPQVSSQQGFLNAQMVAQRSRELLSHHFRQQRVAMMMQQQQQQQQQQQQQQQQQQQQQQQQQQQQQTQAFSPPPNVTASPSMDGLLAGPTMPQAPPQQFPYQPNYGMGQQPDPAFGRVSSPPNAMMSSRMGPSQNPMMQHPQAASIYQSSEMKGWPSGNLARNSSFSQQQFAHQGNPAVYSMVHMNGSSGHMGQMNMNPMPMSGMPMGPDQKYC
`COc1cc2[nH]c3c(Cl)ncnc3c2cc1OC` was tested, and the IC50 was > 35.9 µM (inactive). With `CCC(=O)N1CCN(c2ccnc3cc(Cl)ccc23)CC1` the pIC50 was 5.09. `O=C(N/N=C\c1ccc([N+](=O)[O-])s1)c1cncc(Br)c1` gave a pIC50 of 5.26. `CC(C)(C)n1ncc2c(=O)n(CC(=O)OCc3ccccc3)cnc21` was tested, and the IC50 was > 35.9 µM (inactive). For `CN1C(=O)C2(C(C#N)=C(N)N(c3cc(Cl)cc(Cl)c3)C3=C2C(=O)CC(C)(C)C3)c2ccccc21` (stereo not drawn), the pIC50 was 5.36. In the case of `Cc1ccc2occ(/C=N/NC(=O)c3ccccc3Br)c(=O)c2c1`, the IC50 was “inactive”. In the case of `CN(Cc1cnc2nc(N)nc(N)c2n1)c1ccc(C(=O)N[C@@H](CCC(=O)O)C(=O)O)cc1`, the IC50 was > 35.9 µM (inactive). For `N#Cc1c2ccc(O)cc2n2ccccc12`, the pIC50 was 5.47. `c1ccc(-c2nnc(-c3ccccn3)nc2NC2CCCCC2)cc1` was tested, and the pIC50 was 5.40. For `O=[N+]([O-])c1nn(-c2ccc3c(c2)OCCO3)n(O)c1=Nc1ccccc1`, the pIC50 was 5.97. With `COc1cccc(NC(=O)CSc2nnc(-c3cc(C)n(-c4ccccc4)c3C)o2)c1` the IC50 was > 35.9 µM (inactive). For `C=C1C(=O)[C@]23C[C@H]1CCC2[C@@]1(C)C(C[C@@H]3O)[C@](C)(C(=O)OC)CC[C@@H]1O` (stereo partly drawn), the pIC50 was 5.08. For `O=S(=O)(/C(=C\c1ccc(C(F)(F)F)cc1)c1nc2ccccc2[nH]1)c1ccccc1`, the IC50 was > 12 µM (inactive). `CC(=O)c1cccc(-c2csc3ncnc(Sc4nnnn4C)c23)c1` was tested, and the IC50 was “inactive”. In the case of `Cc1ccc(-n2c(Cl)c(Cl)nc(Cl)c2=O)cc1`, the IC50 was “inactive”. Molecule `Nc1ncnc(NCc2ccccc2)c1[N+](=O)[O-]` has a pIC50 of 5.25. `CCN(c1cccc(C)c1)c1ncnc2nc[nH]c12` was tested, and the IC50 was “inactive”. For `NC(=O)c1cc(Sc2ccccc2)nc2ccccc12`, the pIC50 was 5.45. With `COCCNC(=O)c1cc(-c2ccccn2)nc2ccc(S(=O)(=O)N3CCC(C)CC3)cc12` the IC50 was > 35.9 µM (inactive). Molecule `Nc1ccc(-c2cc3ccccc3oc2=O)cc1` has a pIC50 of 5.08. In the case of `CCc1ccc(-c2nc(CSCC(=O)NCc3ccco3)c(C)o2)cc1`, the IC50 was > 35.9 µM (inactive). For `COc1ccc(CCNC(=O)c2nnn(-c3ccc4c(c3)OCCO4)c2N)cc1OC`, the IC50 was > 35.9 µM (inactive). In the case of `CC(C)(C)c1cc(C(=O)N/N=C/c2ccc(O)cc2)n(-c2ccccc2)n1`, the IC50 was > 35.9 µM (inactive). `COc1cc2c(cc1OC)C(C)N(C(=O)c1cccc([N+](=O)[O-])c1)CC2` (stereo not drawn) was tested, and the pIC50 was 5.14. With `Cc1cc2nccc(-c3ccncc3)n2n1` the IC50 was “inactive”. For `COc1cc2c(c(OC)c1OC)-c1ccc(SC)c(=O)cc1C(NC=O)CC2` (stereo not drawn), the IC50 was “inactive”. `COC(=O)c1cc(S(=O)(=O)NCCc2ccc(Cl)cc2)c[nH]1` gave a pIC50 of 5.24. With `Fc1ccc(CSc2nnc(-c3ccncc3)o2)cc1` the pIC50 was 5.61. Work on `CCN(C(C)=O)c1cnc(C=NNC(N)=S)c2ccccc12` yielded a pIC50 of 5.33. Molecule `NC(=S)NN=Cc1nccc2c(N)cccc12` has a pIC50 of 5.62. In the case of `CC(=O)/C(N=Nc1ccc2c(c1)OCCO2)=C(\C)O`, the IC50 was > 35.9 µM (inactive). For `CS(=O)c1nc(-c2ccc(Br)cc2)cc(-c2ccccc2)c1C#N` (stereo not drawn), the IC50 was “inactive”. In the case of `CC(C)N(c1ccccc1)c1ccc(NC(=O)CCl)cc1`, the IC50 was “inactive”. `O=c1[nH]c(O)c(N=Nc2ccc3c(c2)OCCO3)c(=O)[nH]1` was tested, and the IC50 was > 35.9 µM (inactive). `Cc1ccc(NC(=O)c2cc(C)n(-c3ccccc3)c2C)cc1` was tested, and the IC50 was > 35.9 µM (inactive). In the case of `COc1cccc(/C=N/Nc2cc(-n3nc(C)cc3-c3ccccc3)ncn2)c1O`, the pIC50 was 5.39. With `COc1ccccc1C(=O)N(CCC1CCCN1C)c1nc2ccccc2s1` (stereo not drawn) the IC50 was > 35.9 µM (inactive). `C=CS(=O)(=O)N(Cc1ccc(Cl)c(Cl)c1)C[C@@H](O)CO` showed a pIC50 of 5.16. `COc1ccc(OC)c(Cc2cnc3nc(N)nc(N)c3c2C)c1` gave a pIC50 of 5.13. With `Cc1cc(-c2nnc(SCC(=O)Nc3ccccc3C(F)(F)F)o2)c(C)n1-c1ccccc1` the IC50 was > 35.9 µM (inactive). With `COc1ccc(C)cc1NS(=O)(=O)c1ccc(NC(=O)CN(c2cc([N+](=O)[O-])ccc2C)S(C)(=O)=O)cc1` the IC50 was “inactive”. For `CN[C@H]1CCc2cc(OC)c(OC)c(OC)c2-c2ccc(OC)c(=O)cc21`, the IC50 was > 35.9 µM (inactive). In the case of `OCCN1CCN(C(=S)c2ccc(-c3ccccc3)cc2)CC1`, the pIC50 was 5.34. `Fc1ccccc1-c1csc(=Nc2cccnc2)n1CCCn1ccnc1` gave a pIC50 of 5.28. `C=CCn1c(O)c(C(C)=NCc2cc(OC)cc(OC)c2)c(=O)[nH]c1=O` showed a pIC50 of 5.11. `O=C(CCl)NC(Cc1ccccc1)c1ccccc1` (stereo not drawn) was tested, and the pIC50 was 5.25. `O=C(Nc1ccc(OCC(=O)N2CCOCC2)cc1)c1cncc(Br)c1` showed a pIC50 of 5.35. Molecule `CCCC(=O)NC(c1ccc2c(c1)OCO2)c1cc(Cl)c2cccnc2c1O` (stereo not drawn) has a pIC50 of 5.11. In the case of `Nc1nc2c(nnn2C2CC(O)C(CO)O2)c(=O)[nH]1` (stereo not drawn), the pIC50 was 5.10. In the case of `COc1cc(/C=N/NC(=Nc2ccc(C)cc2)c2nc3ccccc3s2)ccc1O`, the IC50 was > 35.9 µM (inactive). In the case of `O=C(CC(Nc1ccc(Cl)cc1Cl)C(=O)O)c1ccccc1` (stereo not drawn), the IC50 was > 35.9 µM (inactive). Work on `O=C(OCCC12CC3CC(CC(C3)C1)C2)c1ccc(NCc2cc(O)ccc2O)cc1` yielded a pIC50 of 5.36. `Cc1ccc(N=c2c([N+](=O)[O-])nn(-c3ccc4c(c3)OCCO4)n2O)cc1F` showed a pIC50 of 5.07.
